Laboratory results: ChEMBL document CHEMBL5131536, “Novel Quinoline Compounds as EZH2 Inhibitors for Treating Cancer” (ACS Med Chem Lett, 2022)

Target: Histone-lysine N-methyltransferase EZH2 (Homo sapiens, UniProt Q15910)
Test: Inhibition of EZH2 in human G-401 cells assessed as reduction in H3K27 methylation incubated for 48 hrs by ELISA
Type: cell-based

Sequence of Histone-lysine N-methyltransferase EZH2 (Q15910 whole entry): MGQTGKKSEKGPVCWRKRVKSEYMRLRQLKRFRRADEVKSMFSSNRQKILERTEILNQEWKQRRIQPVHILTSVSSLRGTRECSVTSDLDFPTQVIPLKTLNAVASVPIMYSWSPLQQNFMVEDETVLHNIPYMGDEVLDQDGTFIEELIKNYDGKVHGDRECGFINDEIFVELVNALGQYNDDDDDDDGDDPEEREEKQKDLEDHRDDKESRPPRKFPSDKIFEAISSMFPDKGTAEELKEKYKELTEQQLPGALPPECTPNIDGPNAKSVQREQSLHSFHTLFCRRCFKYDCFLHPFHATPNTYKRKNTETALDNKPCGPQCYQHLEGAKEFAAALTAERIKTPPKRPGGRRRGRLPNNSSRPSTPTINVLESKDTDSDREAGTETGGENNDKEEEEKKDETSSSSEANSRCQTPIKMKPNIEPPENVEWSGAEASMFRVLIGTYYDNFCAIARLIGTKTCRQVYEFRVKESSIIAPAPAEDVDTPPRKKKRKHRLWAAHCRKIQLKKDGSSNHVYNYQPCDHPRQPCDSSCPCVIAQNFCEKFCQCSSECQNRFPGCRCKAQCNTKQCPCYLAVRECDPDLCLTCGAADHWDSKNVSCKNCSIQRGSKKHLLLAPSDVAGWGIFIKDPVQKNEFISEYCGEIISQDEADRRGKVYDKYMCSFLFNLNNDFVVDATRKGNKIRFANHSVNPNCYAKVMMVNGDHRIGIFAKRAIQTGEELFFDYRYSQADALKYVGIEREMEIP

| SMILES | IC50 [µM] |
| --- | --- |
| Cc1ccc2ccc(N[C@H]3CC[C@H](CNc4ncc(C(C#N)C(=O)NC5COC5)cn4)CC3)nc2c1Cl (stereo partly specified) | < 0.01 |
| Cc1ccc2ccc(N[C@H]3CC[C@H](CNc4ncc(C(F)(F)C(=O)NC5COC5)cn4)CC3)nc2c1Cl | < 0.01 |
| Cc1ccc2ccc(N[C@H]3CC[C@H](CNc4ccc(CC(=O)NC5COC5)cn4)CC3)nc2c1Cl | < 0.01 |
| Cc1ccc2ccc(N[C@H]3CC[C@H](CNc4ncc(C(CO)C(=O)NC5COC5)cn4)CC3)nc2c1Cl (stereo partly specified) | < 0.01 |
| Cc1ccc2ccc(N[C@H]3CC[C@H](CNc4ncc(C(O)C(=O)NC5COC5)cn4)CC3)nc2c1Cl (stereo partly specified) | < 0.01 |
| Cc1ccc2ccc(N[C@H]3CC[C@H](CNc4ncc(CC(=O)NC5COC5)cn4)CC3)nc2c1Cl | < 0.01 |
